US20240043427A1 (Gilead Sciences, Inc., priority 2020, published 2024)

What was measured:
CD73 [1] = target: T1, CD73 (Homo sapiens (Human), UniProt P21589); experiment: MDA-MB-231 Cell Based CD73 Activity Assay (DMEM); settings: MDA-MB-231-GFP cells, DMEM medium with 10% human plasma, 200 uM AMP
CD73 [2] = target: T1, CD73; format: biochemical; settings: 1 mM NaH2PO4 in enzyme buffer, CD73 0.3 nM, AMP 15 uM

T1 sequence (P21589 27-574): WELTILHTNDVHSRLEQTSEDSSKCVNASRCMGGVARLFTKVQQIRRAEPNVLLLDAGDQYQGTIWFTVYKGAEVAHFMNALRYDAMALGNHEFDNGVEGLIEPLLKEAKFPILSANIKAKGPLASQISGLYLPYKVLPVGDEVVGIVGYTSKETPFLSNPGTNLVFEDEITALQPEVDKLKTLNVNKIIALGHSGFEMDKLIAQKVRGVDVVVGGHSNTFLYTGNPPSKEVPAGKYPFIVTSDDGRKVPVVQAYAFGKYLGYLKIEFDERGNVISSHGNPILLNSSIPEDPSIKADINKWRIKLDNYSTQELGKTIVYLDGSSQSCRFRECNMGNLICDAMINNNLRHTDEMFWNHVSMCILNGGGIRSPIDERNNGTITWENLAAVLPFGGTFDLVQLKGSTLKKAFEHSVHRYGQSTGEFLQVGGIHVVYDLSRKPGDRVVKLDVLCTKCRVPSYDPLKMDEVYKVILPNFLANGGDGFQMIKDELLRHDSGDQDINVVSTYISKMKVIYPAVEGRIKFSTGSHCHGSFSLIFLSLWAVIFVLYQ

Compound	EC50 (CD73 [1]) [nM]	IC50 (CD73 [2]) [nM]
N#Cc1ccc(O[C@H]2CN(c3cc(-c4c[nH]c(=O)[nH]c4=O)nn4ccnc34)CC2(F)F)cc1 [Example 237, (S)-4-((1-(6-(2,4-dioxo-1,2,3,4-tetrahydropyrimidin-5-yl)imidazo[1,2-b]pyridazin-8-yl)-4,4-difluoropyrrolidin-3-yl)oxy)benzonitrile]	1.1	0.7
O=C(Nc1ccc(F)cc1F)OCC(F)(F)COc1cc(-c2c[nH]c(=O)[nH]c2=O)nn2ccnc12 [Example 238, 3-((6-(2,4-dioxo-1,2,3,4-tetrahydropyrimidin-5-yl)imidazo[1,2-b]pyridazin-8-yl)oxy)-2,2-difluoropropyl (2,4-difluorophenyl)carbamate]	5.18	0.36
O=C(Nc1c(F)cc(F)cc1F)O[C@H]1CN(c2cc(-c3c[nH]c(=O)[nH]c3=O)nn3ccnc23)CC1(F)F [Example 239, (S)-1-(6-(2,4-dioxo-1,2,3,4-tetrahydropyrimidin-5-yl)imidazo[1,2-b]pyridazin-8-yl)-4,4-difluoropyrrolidin-3-yl (2,4,6-trifluorophenyl)carbamate]	1.17	0.86
O=c1[nH]cc(-c2cc(N3CC[C@@H](Oc4ccc(F)cc4)C3)c3nccn3n2)c(=O)[nH]1 [Example 240, (R)-5-(8-(3-(4-fluorophenoxy)pyrrolidin-1-yl)imidazo[1,2-b]pyridazin-6-yl)pyrimidine-2,4(1H,3H)-dione]	3.79	0.28
O=C(Nc1ccccc1F)O[C@H]1CN(c2cc(-c3c[nH]c(=O)[nH]c3=O)nn3ccnc23)CC1(F)F [Example 241, (S)-1-(6-(2,4-dioxo-1,2,3,4-tetrahydropyrimidin-5-yl)imidazo[1,2-b]pyridazin-8-yl)-4,4-difluoropyrrolidin-3-yl (2-fluorophenyl)carbamate]	1.41	2.13
CC(=O)NC1CCN(c2cc(-c3c[nH]c(=O)[nH]c3=O)nc3ccnn23)C1 (stereo not drawn) [Example 245, N-(1-(5-(2,4-dioxo-1,2,3,4-tetrahydropyrimidin-5-yl)pyrazolo[1,5-a]pyrimidin-7-yl)pyrrolidin-3-yl)acetamide]	747	170
CC1(O)CCN(c2cc(-c3c[nH]c(=O)[nH]c3=O)nc3ccnn23)C1 (stereo not drawn) [Example 246, 5-(7-(3-hydroxy-3-methylpyrrolidin-1-yl)pyrazolo[1,5-a]pyrimidin-5-yl)pyrimidine-2,4(1H,3H)-dione]	213	168
O=c1[nH]cc(-c2cc(N3CCC(c4ccc(C(F)(F)F)cc4)C3)c3nccn3n2)c(=O)[nH]1 (stereo not drawn) [Example 248, 5-(8-(3-(4-(trifluoromethyl)phenyl)pyrrolidin-1-yl)imidazo[1,2-b]pyridazin-6-yl)pyrimidine-2,4(1H,3H)-dione]	36.3	15.1

The remaining compounds from weak to strong by EC50 (CD73 [1]), led by results:

EC50 (CD73 [1]) [nM]	IC50 (CD73 [2]) [nM]	Compound
574	108	O=c1[nH]cc(-c2cc(N3CC(F)(C(F)(F)F)C3)n3nccc3n2)c(=O)[nH]1 [Example 244, 5-(7-(3-fluoro-3-(trifluoromethyl)azetidin-1-yl)pyrazolo[1,5-a]pyrimidin-5-yl)pyrimidine-2,4(1H,3H)-dione]
93.6	41.9	N#Cc1ccc(C2CN(c3cc(-c4c[nH]c(=O)[nH]c4=O)nn4ccnc34)C2)cc1 [Example 247, 4-(1-(6-(2,4-dioxo-1,2,3,4-tetrahydropyrimidin-5-yl)imidazo[1,2-b]pyridazin-8-yl)azetidin-3-yl)benzonitrile]
56.1	22.2	CC1(O)CCN(c2cc(-c3c[nH]c(=O)[nH]c3=O)nn3ccnc23)C1 (stereo not drawn) [Example 243, 5-(8-(3-hydroxy-3-methylpyrrolidin-1-yl)imidazo[1,2-b]pyridazin-6-yl)pyrimidine-2,4(1H,3H)-dione]
2.43	0.22	O=c1[nH]cc(-c2cc(N3CCC(Oc4ccccc4)C3)c3nccn3n2)c(=O)[nH]1 (stereo not drawn) [Example 242, 5-(8-(3-phenoxypyrrolidin-1-yl)imidazo[1,2-b]pyridazin-6-yl)pyrimidine-2,4(1H,3H)-dione]
